Experimental data taken from ChEMBL document CHEMBL1158906, “Biological Activities of Avarol Derivatives, 1. Amino Derivatives” (J Nat Prod, 1990).
Converted amounts (≈) assume the structure as drawn.

Experiments:
[1] = tested on: Artemia; assay: Toxicity against brine shrimp; type: organism-based; details: in vivo
[2] = tested on: Agrobacterium tumefaciens; assay: Antitumor activity assessed as inhibition of Agrobacterium tumefaciens B6-induced tumor formation after 12 days by potato disk assay; type: functional
[3] = tested on: Staphylococcus aureus; assay: Antimicrobial activity against Staphylococcus aureus ATCC 25293 by serial dilution method; type: functional

Structure (SMILES)	LC50 [1] [ppm]	inhibition (INH) [2] [%]	MIC [3] [µg/mL]
CC1=CCC[C@H]2[C@](C)(CC3=CC(=O)C=C(N)C3=O)[C@@H](C)CC[C@]12C	0.24	53	50 (≈ 153 µM)
CC1=CCC[C@H]2[C@](C)(CC3=CC(=O)C=CC3=O)[C@@H](C)CC[C@]12C [AVARONE]	0.14	63	1.56 (≈ 4.99 µM)
CCNC1=CC(=O)C=C(C[C@]2(C)[C@@H](C)CC[C@]3(C)C(C)=CCC[C@@H]23)C1=O	0.81	54	> 100
CC1=CCC[C@H]2[C@](C)(CC3=CC(=O)C(N[C@@H](C)C(=O)O)=CC3=O)[C@@H](C)CC[C@]12C	2	38	6.25 (≈ 15.6 µM)
CC1(C)S[C@@H]2[C@H](NC(=O)Cc3ccccc3)C(=O)N2[C@H]1C(=O)[O-].[Na+] [PENICILLIN G SODIUM]	–	–	0.04
CC1=CCC[C@H]2[C@](C)(Cc3cc(=O)c4[nH]c5ncnc6ncn(c=4c3=O)c65)[C@@H](C)CC[C@]12C	70.2	27	12.5 (≈ 28.2 µM)
CCNC1=CC(=O)C(C[C@]2(C)[C@@H](C)CC[C@]3(C)C(C)=CCC[C@@H]23)=CC1=O	0.27	38	> 100
CNC1=CC(=O)C(C[C@]2(C)[C@@H](C)CC[C@]3(C)C(C)=CCC[C@@H]23)=CC1=O	0.34	57	> 100
CC1=CCC[C@H]2[C@](C)(CC3=CC(=O)C(N)=CC3=O)[C@@H](C)CC[C@]12C	0.23	55	50 (≈ 153 µM)
CC1=CCC[C@H]2[C@](C)(CC3=CC(=O)C(N[C@@H]4[C@@H](O)[C@H](O)[C@@H](CO)O[C@H]4O)=CC3=O)[C@@H](C)CC[C@]12C	11.5	38	6.25 (≈ 12.8 µM)
